≈ marks a conversion by molar mass, not a printed value. Where two headings read alike, the source gives them in different places.
Experiments:
S. aureus CF2A-L = assay: MIC, microdilution in CAMHB 24 h; assay type: cell-based; settings: Staphylococcus aureus, CF2AL; CF2A-L; Human (CF lungs); read-out: MIC
S. aureus Sa220c = assay: MIC, microdilution in CAMHB 24 h; assay type: cell-based, Staphylococcus aureus; settings: Staphylococcus aureus; Sa220c; Human (SSTI); MRSA; read-out: MIC
S. aureus Newman = assay: MIC, microdilution in CAMHB 24 h; assay type: cell-based, Staphylococcus aureus; settings: Staphylococcus aureus; Newman; Human (Osteo); read-out: MIC
S. aureus CF35A-L = assay: MIC, microdilution in CAMHB 24 h; assay type: cell-based, Staphylococcus aureus; settings: Staphylococcus aureus; CF35A-L; Human (CF lungs); MRSA; read-out: MIC
S. aureus SCV CF07-S = assay: MIC, microdilution in BHI 48 h (Examples 1, 3); assay type: cell-based, Staphylococcus aureus
S. aureus 8325-4 = assay: MIC, microdilution in CAMHB 24 h; assay type: cell-based, Staphylococcus aureus; settings: Staphylococcus aureus, 83254; 8325-4; Laboratory strain; read-out: MIC
S. aureus SCV CF1D-S = assay: MIC, microdilution in BHI 48 h; assay type: cell-based, Staphylococcus aureus; settings: Staphylococcus aureus, SCVCF1DS
S. aureus CF8E-L = assay: MIC, microdilution in CAMHB 24 h; assay type: cell-based, Staphylococcus aureus; settings: Staphylococcus aureus, CF8EL; CF8E-L; Human (CF lungs); read-out: MIC
S. aureus Mu50 = assay: MIC, microdilution in CAMHB 24 h; assay type: cell-based, Staphylococcus aureus; settings: Staphylococcus aureus; Mu50; Human (SSTI); MRSA, VISA; read-out: MIC
[1] = tested on: S. aureus SCV NewbouldΔhemB; assay: MIC, microdilution in BHI 48 h; assay type: cell-based, Staphylococcus aureus
[2] = tested on: S. aureus Newbould (normal strain); assay: MIC, microdilution in BHI 48 h; assay type: cell-based, Staphylococcus aureus; settings: Staphylococcus aureus; Newbould, normal strain; read-out: MIC
S. aureus CF6B-L = assay: MIC, microdilution in CAMHB 24 h; assay type: cell-based, Staphylococcus aureus; settings: Staphylococcus aureus, CF6BL; CF6B-L; Human (CF lungs); read-out: MIC
S. aureus N315 = assay: microbe, parasite or virus in culture; assay type: cell-based, Staphylococcus aureus; settings: Staphylococcus aureus, MRSA
S. aureus CF4B-L = assay: MIC, microdilution in CAMHB 24 h; assay type: cell-based, Staphylococcus aureus; settings: Staphylococcus aureus, CF4BL; CF4B-L; Human (CF lungs); read-out: MIC
S. aureus ATCC BAA-41 = assay: MIC, microdilution in CAMHB 24 h; assay type: cell-based, Staphylococcus aureus; settings: Staphylococcus aureus, ATCC BAA-41 / MRSA; ATCC BAA-41; Human (HA); MRSA; read-out: MIC
[3] = tested on: S. aureus CF1A-L (normal strain); assay: MIC, microdilution in BHI 48 h; assay type: cell-based, Staphylococcus aureus; settings: Staphylococcus aureus; CF1A-L, normal strain; read-out: MIC
S. aureus CF1A-L = assay: MIC, microdilution in CAMHB 24 h; assay type: cell-based, Staphylococcus aureus; settings: Staphylococcus aureus, CF1AL; CF1A-L; Human (CF lungs); read-out: MIC
S. aureus MA078038 = assay: MIC, microdilution in CAMHB 24 h; assay type: cell-based, Staphylococcus aureus; settings: Staphylococcus aureus; MA078038; Human (CA); MRSA; read-out: MIC
S. aureus Newbould = assay: MIC, microdilution in CAMHB 24 h; assay type: cell-based, Staphylococcus aureus; settings: Staphylococcus aureus; Newbould; Cow (mastitis); read-out: MIC
[4] = tested on: S. aureus CF07-L (normal strain); assay: MIC, microdilution in BHI 48 h (Examples 1, 3); assay type: cell-based, Staphylococcus aureus
S. aureus CF9A-L = assay: MIC, microdilution in CAMHB 24 h; assay type: cell-based, Staphylococcus aureus; settings: Staphylococcus aureus; CF9A-L; Human (CF lungs); MRSA; read-out: MIC
S. aureus CF07-L = assay: MIC, microdilution in CAMHB 24 h; assay type: cell-based, Staphylococcus aureus; settings: Staphylococcus aureus, CF07L; CF07-L; Human (CF lungs); read-out: MIC
S. aureus SHY97-3906 = assay: MIC, microdilution in CAMHB 24 h; assay type: cell-based, Staphylococcus aureus; settings: Staphylococcus aureus, SHY973906; SHY97-3906; Cow (mastitis); read-out: MIC
S. aureus CF7A-L = assay: MIC, microdilution in CAMHB 24 h; assay type: cell-based, Staphylococcus aureus; settings: Staphylococcus aureus; CF7A-L; Human (CF lungs); MRSA; read-out: MIC
S. aureus Sa228c = assay: MIC, microdilution in CAMHB 24 h; assay type: cell-based, Staphylococcus aureus; settings: Staphylococcus aureus, MRSA
S. aureus MRSA COL = assay: MIC, microdilution in CAMHB 24 h; assay type: cell-based, Staphylococcus aureus; settings: Staphylococcus aureus; MRSA COL; Human (SSTI); read-out: MIC
S. aureus ATCC 43300 = assay: MIC, microdilution in CAMHB 24 h; assay type: cell-based, Staphylococcus aureus; settings: Staphylococcus aureus, ATCC 43300 / MRSA; ATCC 43300; Human (HA); MRSA; read-out: MIC
S. aureus ATCC 29213 [5] = assay: MIC, microdilution in BHI 48 h (Examples 1, 3); assay type: cell-based, Staphylococcus aureus
S. aureus ATCC 29213 [6] = assay: MIC, microdilution in CAMHB 24 h, with or without tomatidine/compound; assay type: cell-based, Staphylococcus aureus; settings: ATCC 29213; for MIC: Staphylococcus aureus, ATCC29213
S. aureus ATCC 29213 [7] = assay: MICs of control antibiotics for macromolecular biosynthesis assays; assay type: cell-based; settings: Staphylococcus aureus, ATCC29213; ATCC 29213; data not shown; read-out: MIC
[8] = tested on: protein, DNA, RNA and cell wall peptidoglycan biosynthesis in ATCC 29213; assay: Macromolecular biosynthesis assay, incorporation of radiolabeled precursors; assay type: cell-based, Staphylococcus aureus; settings: control antibiotics at approximately 4×MIC; FIG. 3A
[9] = Staphylococcus aureus, SCVCF07S
[10] = Staphylococcus aureus, CF07-L, normal strain, read-out: MIC

O=C(O)c1cn(C2CC2)c2cc(N3CCNCC3)c(F)cc2c1=O [Ciprofloxacin, ciprofloxacin]
MIC (S. aureus CF2A-L): 0.25 µg/mL (≈ 0.754 µM) | MIC (S. aureus Sa220c): 32 µg/mL (≈ 96.6 µM) | MIC (S. aureus Newman): 0.25 µg/mL (≈ 0.754 µM) | MIC (S. aureus CF35A-L): > 64 µg/mL | MIC (S. aureus SCV CF07-S; CF07-S + HQNO at 20 μg/ml): 0.12 µg/mL | MIC (S. aureus SCV CF07-S; CF07-S, without HQNO): 0.12 µg/mL (≈ 0.362 µM) | MIC (S. aureus SCV CF07-S; [9]): 0.12 µg/mL (≈ 0.362 µM) | MIC (S. aureus 8325-4): 0.25 to 0.5 µg/mL (≈ 0.754 to 1.51 µM) | MIC (S. aureus SCV CF1D-S): 0.12 µg/mL (≈ 0.362 µM) | MIC (S. aureus CF8E-L): 1 µg/mL (≈ 3.02 µM) | MIC (S. aureus Mu50): 32 to 64 µg/mL (≈ 96.6 to 193 µM) | MIC ([1]; Staphylococcus aureus): 0.12 to 0.25 µg/mL (≈ 0.362 to 0.754 µM) | MIC [2]: 0.25 to 0.5 µg/mL (≈ 0.754 to 1.51 µM) | MIC (S. aureus CF6B-L): > 64 µg/mL | MIC (S. aureus N315): 0.25 µg/mL (≈ 0.754 µM) | MIC (S. aureus CF4B-L): 0.25 to 0.5 µg/mL (≈ 0.754 to 1.51 µM) | MIC (S. aureus ATCC BAA-41): > 64 µg/mL | MIC [3]: 0.5 µg/mL (≈ 1.51 µM) | MIC (S. aureus CF1A-L): 0.5 to 1 µg/mL (≈ 1.51 to 3.02 µM) | MIC (S. aureus MA078038): 16 µg/mL (≈ 48.3 µM) | MIC (S. aureus Newbould): 0.25 µg/mL (≈ 0.754 µM) | MIC ([4]; CF07-L + HQNO at 20 μg/ml): 0.25 µg/mL | MIC ([4]; CF07-L, without HQNO): 0.5 µg/mL (≈ 1.51 µM) | MIC [4, 10]: 0.5 µg/mL (≈ 1.51 µM) | MIC (S. aureus CF9A-L): > 64 µg/mL | MIC (S. aureus CF07-L): 0.5 µg/mL (≈ 1.51 µM) | MIC (S. aureus SHY97-3906): 0.25 µg/mL (≈ 0.754 µM) | MIC (S. aureus CF7A-L): > 64 µg/mL | MIC (S. aureus Sa228c): > 64 µg/mL | MIC (S. aureus MRSA COL): 0.5 µg/mL (≈ 1.51 µM) | MIC (S. aureus ATCC 43300): 0.5 µg/mL (≈ 1.51 µM)

CC[C@H]1OC(=O)[C@H](C)[C@@H](O[C@H]2C[C@@](C)(OC)[C@@H](O)[C@H](C)O2)[C@H](C)[C@@H](O[C@@H]2O[C@H](C)C[C@H](N(C)C)[C@H]2O)[C@](C)(O)C[C@@H](C)C(=O)[C@H](C)[C@@H](O)[C@]1(C)O [Erythromycin, erythromycin]
MIC (S. aureus ATCC 29213 [5]; ATCC 29213 + HQNO at 20 μg/ml): 0.25 µg/mL | MIC (S. aureus ATCC 29213 [5]; Staphylococcus aureus, ATCC29213, ATCC 29213, without HQNO, read-out: MIC): 0.12 to 0.25 µg/mL (≈ 0.164 to 0.341 µM) | MIC (S. aureus ATCC 29213 [5]; Staphylococcus aureus, ATCC29213, ATCC 29213 in BHI, read-out: MIC): 0.12 to 0.25 µg/mL (≈ 0.164 to 0.341 µM) | MIC (S. aureus ATCC 29213 [5]; Staphylococcus aureus, ATCC29213, ATCC 29213 in MHBCA, read-out: MIC): 0.12 to 0.5 µg/mL (≈ 0.164 to 0.681 µM) | MIC (S. aureus CF2A-L): 0.5 µg/mL (≈ 0.681 µM) | MIC (S. aureus Sa220c): 0.5 to 1 µg/mL (≈ 0.681 to 1.36 µM) | MIC (S. aureus Newman): 0.5 µg/mL (≈ 0.681 µM) | MIC (S. aureus CF35A-L): > 64 µg/mL | MIC (S. aureus SCV CF07-S; CF07-S + HQNO at 20 μg/ml): 0.06 to 0.12 µg/mL | MIC (S. aureus SCV CF07-S; CF07-S, without HQNO): 0.12 µg/mL (≈ 0.164 µM) | MIC (S. aureus SCV CF07-S; [9]): 0.12 µg/mL (≈ 0.164 µM) | MIC (S. aureus 8325-4): 0.25 to 0.5 µg/mL (≈ 0.341 to 0.681 µM) | MIC (S. aureus SCV CF1D-S): 0.12 µg/mL (≈ 0.164 µM) | MIC (S. aureus CF8E-L): 0.5 µg/mL (≈ 0.681 µM) | MIC (S. aureus Mu50): > 64 µg/mL | MIC ([1]; NewbouldΔhemB, SCV, listed as ERY): >16 µg/mL | MIC ([1]; Staphylococcus aureus): > 16 µg/mL | MIC [2]: 0.25 µg/mL (≈ 0.341 µM) | MIC (S. aureus CF6B-L): 0.5 to 2 µg/mL (≈ 0.681 to 2.73 µM) | MIC (S. aureus N315): > 64 µg/mL | MIC (S. aureus CF4B-L): 0.5 µg/mL (≈ 0.681 µM) | MIC (S. aureus ATCC BAA-41): > 64 µg/mL | MIC [3]: 0.25 µg/mL (≈ 0.341 µM) | MIC (S. aureus CF1A-L): 0.25 to 0.5 µg/mL (≈ 0.341 to 0.681 µM) | MIC (S. aureus MA078038): 64 µg/mL (≈ 87.2 µM) | MIC (S. aureus Newbould): 0.5 µg/mL (≈ 0.681 µM) | MIC ([4]; CF07-L + HQNO at 20 μg/ml): 0.25 µg/mL | MIC ([4]; CF07-L, without HQNO): 0.25 µg/mL (≈ 0.341 µM) | MIC [4, 10]: 0.25 µg/mL (≈ 0.341 µM) | MIC (S. aureus CF9A-L): > 64 µg/mL | MIC (S. aureus CF07-L): 0.5 µg/mL (≈ 0.681 µM) | MIC (S. aureus SHY97-3906): 0.12 to 0.25 µg/mL (≈ 0.164 to 0.341 µM) | MIC (S. aureus CF7A-L): > 64 µg/mL | MIC (S. aureus Sa228c): > 64 µg/mL | MIC (S. aureus MRSA COL): 0.5 µg/mL (≈ 0.681 µM) | MIC (S. aureus ATCC 43300): > 64 µg/mL | Fold (−TO/+TO) (S. aureus ATCC 29213 [6]; tomatidine at 8 μg/ml): 1 fold | MIC (S. aureus ATCC 29213 [6]; Human (SSTI), read-out: MIC): 0.5 µg/mL (≈ 0.681 µM) | MIC (S. aureus ATCC 29213 [6]; absence of tomatidine, read-out: MIC −TO): 0.5 µg/mL (≈ 0.681 µM) | MIC (S. aureus ATCC 29213 [6]; presence of tomatidine at 8 μg/ml, read-out: MIC +TO): 0.5 µg/mL

O=C(N[C@H](CO)[C@H](O)c1ccc([N+](=O)[O-])cc1)C(Cl)Cl [chloramphenicol]
MIC (S. aureus ATCC 29213 [7]): 8 to 16 µg/mL (≈ 24.8 to 49.5 µM) | incorporation of radiolabeled precursors into the targeted macromolecules [8]: preferentially inhibited

Reference: US9457033B2, “Steroid alkaloids and uses thereof as antimicrobial agents against electron transport-deficient microbes and as potentiators for antimicrobial agents against pathogenic bacteria” (priority 2011, dated 2016)
